Values quoted from earlier work in US11571373B2, “Skin care preparations for babies” (priority 2015, dated 2023).
One block for each molecule: values may come before it.

Experiments:
[1] = species and route not given
[2] = in vivo

Molecule: [O-2].[Zn+2] [Zinc oxide (CI 77947), Zinc oxide]
solubility in water: 0.00016 g/100 ml water

Molecule: C12-C13 Pareth-4
The actual or estimated LD50 value [1]: 2,000 mg/kg body weight

Molecule: Disodium Laureth Sulfosuccinate
The actual or estimated LD50 value [1]: 5,000 mg/kg body weight

Molecule: Sodium Cocoamphoacetate
Oral LD50 value (rat) (rat): 14,859 mg/kg | The actual or estimated LD50 value [1]: 14,859 mg/kg body weight

average absorption [2]: 40-60% | share transported via the lymphatic system into the bloodstream [2]: About 90% | extent of oral absorption ([2]; po): 20-80%
Molecule: Tocopherol
